Measured values published in publication PMC4308083, “Cytokine-Induced Loss of Glucocorticoid Function: Effect of Kinase Inhibitors, Long-Acting β2-Adrenoceptor Agonist and Glucocorticoid Receptor Ligands” (PLoS ONE, 2015).
Like-named read-outs stand apart in the source and are kept apart here. Blank lines part the entries; values can stand above or below the compound they belong to.

Legend:
[1] = molecular target: T1, glucocorticoid receptor (NR3C1) (Homo sapiens, UniProt P04150); assay: 2×GRE luciferase reporter activation by NR3C1 ligands in BEAS-2B cells; type: cell-based; conditions: for EC50: pEC50 (M)
T1 construct: BEAS-2B cells stably transfected with a glucocorticoid response element (2×GRE) driven luciferase reporter plasmid; endogenous in cells; host or cells: BEAS-2B human bronchial epithelial cells stably carrying a 2×GRE luciferase reporter
T1 sequence (P04150 1-777): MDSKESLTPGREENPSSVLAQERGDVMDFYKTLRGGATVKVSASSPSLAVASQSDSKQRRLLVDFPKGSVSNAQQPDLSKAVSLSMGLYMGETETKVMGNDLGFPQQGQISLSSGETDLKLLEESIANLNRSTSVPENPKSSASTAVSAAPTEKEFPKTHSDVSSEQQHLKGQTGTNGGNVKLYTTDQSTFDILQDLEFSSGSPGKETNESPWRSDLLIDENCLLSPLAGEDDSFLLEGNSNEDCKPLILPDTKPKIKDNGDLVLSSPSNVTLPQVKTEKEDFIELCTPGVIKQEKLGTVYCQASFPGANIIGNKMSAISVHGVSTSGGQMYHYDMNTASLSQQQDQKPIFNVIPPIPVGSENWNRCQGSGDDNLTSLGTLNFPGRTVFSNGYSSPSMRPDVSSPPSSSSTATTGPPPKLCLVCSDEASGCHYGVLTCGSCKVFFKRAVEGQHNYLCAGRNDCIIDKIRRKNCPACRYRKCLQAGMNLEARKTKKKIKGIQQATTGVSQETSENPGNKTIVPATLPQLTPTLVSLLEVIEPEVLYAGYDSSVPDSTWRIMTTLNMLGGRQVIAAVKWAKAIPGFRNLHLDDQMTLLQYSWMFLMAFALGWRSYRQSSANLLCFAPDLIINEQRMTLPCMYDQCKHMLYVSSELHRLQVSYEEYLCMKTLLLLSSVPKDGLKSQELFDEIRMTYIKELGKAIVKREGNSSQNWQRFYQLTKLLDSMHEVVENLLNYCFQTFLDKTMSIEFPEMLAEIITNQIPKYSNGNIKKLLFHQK
Experimental: (§1) BEAS-2B cells stably transfected with a glucocorticoid response element (2×GRE) driven luciferase reporter plasmid, pGL3.neo.TATA.neo [23], were cultured in medium containing 0.25 mg/ml G-418 (Promega, Madison, WI). Cells were grown to confluence in 24 or 48 well plates and incubated overnight in serum-free media prior to experiments. Cells were harvested in reporter lysis buffer and luciferase assays performed according to the manufacturer’s instructions (Firefly Luciferase Assay Kit; Biotium; Hayward, CA) using a 20/20n luminometer (Promega).
Cells were harvested 6 h after NR3C1 ligand addition for luciferase assay.
(§2) Cells were harvested after 6 h for luciferase assays. Data (n = 7), expressed as fold activation, are plotted as means ± S.E. Lines of best fit were added in panel B. Statistical analyses were performed by ANOVA with a Dunnett’s test comparing each NR3C1 ligand alone versus in the presence of TNF and/or Form. *, P<0.05; **, P<0.01; ***, P<0.001.

[2] = test system: CDKN1C, DUSP1, RGS2 and TSC22D3 mRNA in BEAS-2B cells; assay: RT-PCR of glucocorticoid-inducible gene expression in BEAS-2B cells
2×GRE reporter = assay: Modulation of dexamethasone/NR3C1 ligand-induced 2×GRE reporter activation (kinase inhibitors, TNF, formoterol) in BEAS-2B cells; type: cell-based, human; conditions: for Effect on dexamethasone-induced 2×GRE reporter activation (concentration-response): 30 min pre-treatment, 6 h (Fig. 3B, Fig. 4), JNK inhibitor VIII only at 30 μM, PKC inhibitors above 1 μM; for Effect on dexamethasone-induced 2×GRE reporter activation: 10 μM inhibitor 30 min pre-treatment, 6 h (Fig. 3A)
Experimental: as §1
Data (n = 7), expressed as a percentage of Dex activation, are plotted as means ± S.E. BEAS-2B 2×GRE cells were pre-treated for 30 min with the indicated concentrations of B. PS or JNK or C. JNK in the presence or absence of 10 μM PS, before addition of 10 ng/ml TNF. After 1 h, 10 μM Dex was added and cells harvested 6 h later for luciferase assay. […] D+T indicates Dex plus TNF treatment.
Data (n = 3–4), expressed as fold activation, are plotted as means ± S.E. D+T indicates Dex plus TNF treatment.
as §2

[3] = 100 nM ligand, 10 nM formoterol, 6 h (Fig. 8)
[4] = BEAS-2B 2×GRE reporter, TNF 10 ng/ml pre-treatment 1 h, 6 h, percent of 1 μM dexamethasone
[5] = BEAS-2B 2×GRE reporter, no TNF, 6 h, percent of 1 μM dexamethasone
[6] = BEAS-2B 2×GRE reporter, TNF 10 ng/ml pre-treatment 1 h, 6 h
[7] = BEAS-2B 2×GRE reporter, no TNF, 6 h

E max (% Dex), Naive [1]: 109.9 ± 2.6 % Dex
Compound: CCCC1O[C@@H]2C[C@H]3[C@@H]4CCC5=CC(=O)C=C[C@]5(C)[C@H]4[C@@H](O)C[C@]3(C)[C@]2(C(=O)CO)O1 (stereo partly shown) [Budesonide]

Compound: C[C@]12C=CC(=O)C=C1CC[C@@H]1[C@@H]2[C@@H](O)C[C@@]2(C)[C@H]1C[C@H]1O[C@@H](C3CCCCC3)O[C@]12C(=O)CO [Des-ciclesonide]
RGS2 mRNA expression in the presence of formoterol relative to dexamethasone [2, 3]: significantly lower
TSC22D3 mRNA fold induction ([2]; 6 h, 1 μM dexamethasone, 100 nM other ligands (Fig. 8, n = 5)): 71 fold
Agonist type on 2×GRE reporter relative to dexamethasone ([1]; BEAS-2B 2×GRE reporter): partial agonists
E max (% Dex), +TNF [1, 4]: 43.1 ± 1.0 % Dex
E max (% Dex), Naive [1, 5]: 76.0 ± 2.0 % Dex
EC50 ([1]; +TNF, BEAS-2B 2×GRE reporter, TNF 10 ng/ml pre-treatment 1 h, 6 h): 3.16e-09 M
EC50 ([1]; Naive, BEAS-2B 2×GRE reporter, no TNF, 6 h): 2.51e-09 M

Compound: C[C@@H]1C[C@H]2[C@@H]3CCC4=CC(=O)C=C[C@]4(C)[C@@]3(F)[C@@H](O)C[C@]2(C)[C@@]1(O)C(=O)CO [Dexamethasone]
E max (% Dex), +TNF [1, 4]: 58.7 ± 3.2 % Dex
E max (% Dex), Naive [1, 5]: 100 ± 3.2 % Dex

E max (% Dex), +TNF [1, 4]: 51.0 ± 2.8 % Dex
E max (% Dex), Naive [1, 5]: 111.2 ± 4.3 % Dex
Compound: CCC(=O)O[C@]1(C(=O)SCF)[C@H](C)C[C@H]2[C@@H]3C[C@H](F)C4=CC(=O)C=C[C@]4(C)[C@@]3(F)[C@@H](O)C[C@@]21C [Fluticasone Propionate]

Compound: CN(C)CCCn1cc(C2=C(c3c[nH]c4ccccc34)C(=O)NC2=O)c2ccccc21 [GF109203X]
Effect on dexamethasone-induced 2×GRE reporter activation (concentration-response) (2×GRE reporter): enhanced

Compound: C[C@@H]1C[C@H]2[C@@H]3C[C@H](F)C4=CC(=O)C=C[C@]4(C)[C@@]3(F)[C@@H](O)C[C@]2(C)[C@@]1(OC(=O)C1C(C)(C)C1(C)C)C(=O)OCC#N [GW870086X]
RGS2 mRNA expression in the presence of formoterol relative to dexamethasone [2, 3]: significantly lower
TSC22D3 mRNA expression in the presence of formoterol, or TNF plus formoterol, relative to dexamethasone [2, 3]: significantly lower
Agonist type on 2×GRE reporter relative to dexamethasone ([1]; BEAS-2B 2×GRE reporter): partial agonists
pEC50 (M), +TNF [1, 6]: 8.0 ± 0.2 * M
E max (% Dex), +TNF [1, 4]: 29.8 ± 1.4 % Dex
pEC50 (M), Naive [1, 7]: 8.3 ± 0.1 M
E max (% Dex), Naive [1, 5]: 50.1 ± 1.1 % Dex

Compound: Cn1c2ccccc2c2c3c(c4c5ccccc5n(CCC#N)c4c21)CNC3=O [Gö6976]
Effect on dexamethasone-induced 2×GRE reporter activation (concentration-response) (2×GRE reporter): reduced

Compound: COc1cccc(-c2cc(=O)c3ccccc3o2)c1N [PD098059]
Effect on dexamethasone-induced 2×GRE reporter activation (2×GRE reporter): significantly reduced

Agonist type on 2×GRE reporter relative to dexamethasone ([1]; BEAS-2B 2×GRE reporter): partial agonists
pEC50 (M), +TNF [1, 6]: 7.3 ± 0.0 * M
E max (% Dex), +TNF [1, 4]: 46.0 ± 0.8 % Dex
pEC50 (M), Naive [1, 7]: 7.4 ± 0.0 M
E max (% Dex), Naive [1, 5]: 74.9 ± 1.1 % Dex
Compound: C[C@@H]1C[C@H]2[C@@H]3CCC4=CC(=O)C=C[C@]4(C)[C@@]3(F)[C@@H](O)C[C@]2(C)[C@H]1C(=O)CC#N [RU24858]

Compound: Cn1cc(C2=C(c3cn(CCCSC(=N)N)c4ccccc34)C(=O)NC2=O)c2ccccc21 [Ro 31–8220]
Effect on dexamethasone-induced 2×GRE reporter activation (concentration-response) (2×GRE reporter): reduced

Compound: C[S+]([O-])c1ccc(-c2nc(-c3ccncc3)c(-c3ccc(F)cc3)[nH]2)cc1 (stereo not shown) [SB203580]
Effect on dexamethasone-induced 2×GRE reporter activation (2×GRE reporter): no effect

Agonist type on 2×GRE reporter relative to dexamethasone ([1]; BEAS-2B 2×GRE reporter): partial agonists
pEC50 (M), +TNF [1, 6]: 7.0 ± 0.1 M
E max (% Dex), +TNF [1, 4]: 40.7 ± 0.9 % Dex
pEC50 (M), Naive [1, 7]: 7.1 ± 0.0 M
E max (% Dex), Naive [1, 5]: 77.2 ± 1.0 % Dex
Compound: GSK9027
